Source: patent publication US20230339886A1 (University of Florida Research Foundation, Incorporated, priority 2020, published 2023)

How the values were obtained:
[1] = target: T1, REV-ERBα LBD (human; residues 281-614 Δ324-422) (Homo sapiens, UniProt P20393, DEL324-422); assay: TR-FRET corepressor interaction assay (REV-ERBα LBD, FITC-SMRT peptide); type: biochemical; details: Table 2, read-out: REVERBα agonism (EC50 class, FRET assay)
T1 construct: 6×Histag-REV-ERBα LBD (human; residues 281-614 Δ324-422); made in house; host or cells: Escherichia coli
Summary of the method: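 Compound serial dilutions (in DMSO, triplicate) incubated 2 h at 4 °C; Tb donor excited at 340 nm, emission read at 495 nm and FITC acceptor at 520 nm. TR-FRET ratio (520/495 nm) plotted against ligand concentration and fitted to a sigmoidal dose-response curve.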

REV-ERBβ = target: T2, REV-ERBβ (Homo sapiens, UniProt Q14995); assay: TR-FRET corepressor interaction assay (REV-ERBβ, FITC-SMRT peptide); type: biochemical; details: Table 2, read-out: REVERBβ agonism (EC50 class, FRET assay)
T2 construct: 6×Histag-REV-ERBα LBD (human; residues 381-579); made in house; host or cells: Escherichia coli
T2 sequence (Q14995 381-579): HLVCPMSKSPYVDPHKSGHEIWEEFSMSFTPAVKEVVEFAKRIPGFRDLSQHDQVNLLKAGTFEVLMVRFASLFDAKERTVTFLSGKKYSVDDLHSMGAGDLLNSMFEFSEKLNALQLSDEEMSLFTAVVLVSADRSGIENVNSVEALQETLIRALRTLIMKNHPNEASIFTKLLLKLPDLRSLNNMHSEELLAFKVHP
Summary of the method: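 Tb-donor/FITC-SMRT peptide TR-FRET; ligand serially diluted in DMSO, in triplicate, incubated 2 h at 4° C. Excitation at 340 nm; ratio of 520 nm to 495 nm emission plotted against ligand concentration and fitted to a sigmoidal dose-response curve.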

T1 sequence (P20393 with tags, fused parts or gaps DEL324-422): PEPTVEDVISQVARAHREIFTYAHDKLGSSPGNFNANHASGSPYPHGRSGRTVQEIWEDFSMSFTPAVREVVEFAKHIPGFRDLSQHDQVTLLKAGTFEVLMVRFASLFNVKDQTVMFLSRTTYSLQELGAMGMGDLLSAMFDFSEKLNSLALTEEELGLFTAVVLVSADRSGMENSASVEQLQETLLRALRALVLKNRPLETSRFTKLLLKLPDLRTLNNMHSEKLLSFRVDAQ
T1 sequence (Q9Y618 2335-2356 partner limits assumed): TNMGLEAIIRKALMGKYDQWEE

| Structure (SMILES) | EC50 [1] [nM] | EC50 (REV-ERBβ) [nM] |
| --- | --- | --- |
| CC(C)(C)Cn1cc([C@H](NS(=O)(=O)C2CC2)C(F)(F)F)c2cc(F)c(-c3ccccc3Cl)cc21 [Example 331, (S)—N-(1-(6-(2-chlorophenyl)-5-fluoro-1-neopentyl-1H-indol-3-yl)-2,2,2-trifluoroethyl)cyclopropanesulfonamide] | < 500 | 500 to 3000 |
| CC(C)Cn1cc([C@H](NS(=O)(=O)C2CC2)C(F)(F)F)c2ccc(C(C)C)cc21 [Example 333, (S)—N-(2,2,2-trifluoro-1-(1-isobutyl-6-isopropyl-1H-indol-3-yl)ethyl)cyclopropanesulfonamide] | < 500 | > 3000 |
| CC(C)c1ccc2c([C@H](NS(=O)(=O)N(C)C)C(F)(F)F)cn(CC(C)(C)C)c2c1 [Example 340, {[(1S)-1-[1-(2,2-dimethylpropyl)-6-(propan-2-yl)-1H-indol-3-yl]-2,2,2-trifluoroethyl]sulfamoyl}dimethylamine] | < 500 | 500 to 3000 |
| CC(C)(C)Cn1cc([C@H](NS(=O)(=O)C2CC2)C(F)(F)F)c2cc(F)c(Br)cc21 [Example 342, (S)—N-(1-(6-bromo-5-fluoro-1-neopentyl-1H-indol-3-yl)-2,2,2-trifluoroethyl)cyclopropanesulfonamide] | < 500 | > 3000 |
| CC(C)Cc1cn(CCNS(=O)(=O)C2CC2)c2ncc(-c3ccncc3)cc12 [Example 365, N-(2-(3-isobutyl-5-(pyridin-4-yl)-1H-pyrrolo[2,3-b]pyridin-1-yl)ethyl)cyclopropanesulfonamide] | < 500 | > 3000 |
